Patent US11000033B2, “Ketone or oxime compound, and herbicide” (NISSAN CHEMICAL CORPORATION, priority 2014, dated 2021)

Columns and labels:
Type in all cases: in vivo
[1] = system: rice plant; test: Test Example 5: effect on crop by foliage application, plastic box (symbol b); conditions: 320 g/ha, 3 weeks after application
In short: (§1)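 Plants were raised from seed in a greenhouse (25° C. to 30° C.) after sowing in a plastic box of sterilized diluvial soil.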

[2] = system: corn; test: Test Example 4: effect on crop by soil treatment (symbol c); conditions: application herbicide amount 320 g/ha
In short: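 Sterilized diluvial soil, spot sowing, ~1.5 cm soil cover; greenhouse 25–30° C.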

[3] = system: Scirpus juncoides; test: Test Example 1: herbicidal activity, application before weed generation in submerged conditions (symbol B); conditions: application herbicide amount 320 g/ha
In short: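 Application before weed emergence: an aqueous dilution of the emulsion formulation was poured onto the surface of 4 cm-deep floodwater on the day of sowing. Effect was judged after 3 weeks (greenhouse, 25–30 °C).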

[4] = system: wheat; test: Test Example 5: effect on crop by foliage application, plastic box (symbol e); conditions: 320 g/ha, 3 weeks after application
In short: as §1

[5] = system: Galium spurium; test: Test Example 5: herbicidal effect by foliage application, plastic box (symbol Q); conditions: 320 g/ha, 3 weeks after application
In short: (§2)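 Post-emergence spray; diluvial soil (sterilized), ~1.5 cm seed cover; greenhouse 25–30° C; 14-day-old plants; water-diluted emulsion at predetermined dose; visual score at 3 wk post-treatment.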

[6] = system: Amaranthus retroflexus; test: Test Example 5: herbicidal effect by foliage application, plastic box (symbol N); conditions: 320 g/ha, 3 weeks after application
In short: as §2

[7] = system: Scirpus juncoides; test: Test Example 2: herbicidal activity, application during weed generation in submerged conditions (symbol B); conditions: Table 23; application herbicide amount 320 g/ha; grade 0-5 by criteria of Test Example 1
In short: (§3)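 Treatment timing was the one- to two-leaf stage, with diluted emulsifiable compound dropped onto the paddy water (depth 4 cm) over alluvial soil. All three species grew from a mixed sowing in a 25° C. to 30° C. greenhouse. Injury was judged by eye 3 weeks on.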

[8] = system: Cyperus difformis; test: Test Example 3: herbicidal effect by foliage application, Wagner pot (symbol E); conditions: application herbicide amount 320 g/ha
In short: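 The compound, formulated as an emulsion and diluted with water to a predetermined rate, is applied uniformly to leaves of two-week-old seedlings growing in submerged alluvial soil at 25–30 °C. Rice is included. Each plant is assessed 3 weeks later using defined criteria.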

[9] = system: Echinochloa oryzacola Vasing.; test: Test Example 2: herbicidal activity, application during weed generation in submerged conditions (symbol A); conditions: Table 23; application herbicide amount 320 g/ha; grade 0-5 by criteria of Test Example 1
In short: as §3

[10] = system: Veronica persica; test: Test Example 5: herbicidal effect by foliage application, plastic box (symbol R); conditions: 320 g/ha, 3 weeks after application
In short: as §2

[11] = system: Stellaria media; test: Test Example 4: herbicidal effect by soil treatment (symbol P); conditions: application herbicide amount 320 g/ha
In short: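 Seeds were sown in sterilized diluvial soil, covered with about 1.5 cm of soil, and the soil surface was sprayed with a water-diluted emulsion of the compound at a predetermined rate. Plants grew in a greenhouse at 25° C. to 30° C.; effects were scored visually 3 weeks after application.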

[12] = system: soybean; test: Test Example 5: effect on crop by foliage application, plastic box (symbol d); conditions: 320 g/ha, 3 weeks after application
In short: as §1

| Structure (SMILES) | b: directly sowed rice plant, effect on crop (criteria of Test Example 1) [1] | c: corn, effect on crop grade [2] | Herbicidal effect grade, B: Scirpus juncoides [3] | e: wheat, effect on crop (criteria of Test Example 1) [4] | Q: Galium spurium, herbicidal effect (criteria of Test Example 1) [5] | N: Amaranthus retroflexus, herbicidal effect (criteria of Test Example 1) [6] | Herbicidal effect grade, B: Scirpus juncoides [7] | herbicidal effect on E, grade 0-5 [8] | Herbicidal effect grade, A: Echinochloa oryzacola Vasing. [9] | R: Veronica persica, herbicidal effect (criteria of Test Example 1) [10] | P: Stellaria media, herbicidal effect grade [11] | d: soybean, effect on crop (criteria of Test Example 1) [12] | Effect on crop grade, c: corn [2] | Herbicidal effect grade, P: Stellaria media [11] |
| --- | --- | --- | --- | --- | --- | --- | --- | --- | --- | --- | --- | --- | --- | --- |
| CON=C(C)CC1CC(O)=C(c2c(C)cc(-n3cncn3)cc2C)C1=O (stereo not drawn) [6-074] | 2 (Herbicidal ratio of 20% or higher and lower than 40%) | 0 (Herbicidal ratio of 5% or lower (almost no effect)) | 0 (Herbicidal ratio of 5% or lower (almost no effect)) | 0 (Herbicidal ratio of 5% or lower (almost no effect)) | 0 (Herbicidal ratio of 5% or lower (almost no effect)) | 0 (Herbicidal ratio of 5% or lower (almost no effect)) | 0 (Herbicidal ratio of 5% or lower (almost no effect)) | 2 (Herbicidal ratio of 20% or higher and lower than 40%) | 1 (Herbicidal ratio of 5% or higher and lower than 20%) | 0 (Herbicidal ratio of 5% or lower (almost no effect)) | 0 (Herbicidal ratio of 5% or lower (almost no effect)) | 0 (Herbicidal ratio of 5% or lower (almost no effect)) |  |  |
| CC#Cc1cc(C)c(C2=C(O)CC(CC(C)=O)C2=O)c(C)c1 (stereo not drawn) [7-010] | 5 (Herbicidal ratio of 90% or more (almost completely withered)) |  | 5 (Herbicidal ratio of 90% or more (almost completely withered)) | 5 (Herbicidal ratio of 90% or more (almost completely withered)) | 0 (Herbicidal ratio of 5% or lower (almost no effect)) | 1 (Herbicidal ratio of 5% or higher and lower than 20%) | 5 (Herbicidal ratio of 90% or more (almost completely withered)) | 5 (Herbicidal ratio of 90% or more (almost completely withered)) | 5 (Herbicidal ratio of 90% or more (almost completely withered)) | 4 (Herbicidal ratio of 70% or higher and lower than 90%) |  | 3 (Herbicidal ratio of 40% or higher and lower than 70%) | 5 (Herbicidal ratio of 90% or more (almost completely withered)) | 0 (Herbicidal ratio of 5% or lower (almost no effect)) |
